Test results published in patent publication US10487068B2, “Pyridazine derivatives as RORc modulators” (Genentech, Inc., priority 2015, dated 2019).

molecular target: T1, RORc ligand binding domain (Homo sapiens, UniProt P51449); test: In Vitro RORc Ligand Binding Assay; conditions: RORc IC50, radioligand 25-[3H]hydroxycholesterol 6 nM; 0.6 ug/mL RORc receptor; 3 h at 25° C.
T1 sequence (P51449 269-508 limits assumed): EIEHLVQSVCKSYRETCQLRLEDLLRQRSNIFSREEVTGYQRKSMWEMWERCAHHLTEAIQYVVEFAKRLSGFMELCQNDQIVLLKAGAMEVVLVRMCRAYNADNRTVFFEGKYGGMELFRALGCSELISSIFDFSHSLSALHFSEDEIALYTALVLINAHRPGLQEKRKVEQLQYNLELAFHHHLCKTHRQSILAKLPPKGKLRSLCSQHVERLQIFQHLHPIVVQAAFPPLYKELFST

Compound | IC50 [nM]
CC(C)(O)c1coc(-c2cccc([C@@]34CC[C@@H](c5cc(-c6c(F)cccc6F)nnc53)C4(C)C)n2)n1 [Example 240, 2-(2-(6-((5R,8S)-3-(2,6-difluorophenyl)-9,9-dimethyl-5,6,7,8-tetrahydro-5,8-methanocinnolin-8-yl)pyridin-2-yl)oxazol-4-yl)propan-2-ol] | 4.5
Cc1cc(-c2ccnc([C@@]34CC[C@@H](c5cc(-c6c(F)cccc6F)nnc53)C4(C)C)n2)on1 [Example 241, 5-(2-((5R,8R)-3-(2,6-difluorophenyl)-9,9-dimethyl-5,6,7,8-tetrahydro-5,8-methanocinnolin-8-yl)pyrimidin-4-yl)-3-methylisoxazole] | 11
CC1(C)[C@H]2CC[C@]1(c1c(Br)cnc(C#N)c1F)c1nnc(-c3c(F)cccc3F)cc12 [Example 242, 5-bromo-4-((5R,8S)-3-(2,6-difluorophenyl)-9,9-dimethyl-5,6,7,8-tetrahydro-5,8-methanocinnolin-8-yl)-3-fluoropicolinonitrile] | 5
CC1(C)[C@H]2CC[C@]1(c1cncc(-n3cc(CO)cn3)n1)c1nnc(-c3c(F)cccc3F)cc12 [Example 243, (1-(6-((5R,8S)-3-(2,6-difluorophenyl)-9,9-dimethyl-5,6,7,8-tetrahydro-5,8-methanocinnolin-8-yl)pyrazin-2-yl)-1H-pyrazol-4-yl)methanol] | 11.7
CC1(C)[C@H]2CC[C@]1(c1cc(-c3c[nH]c(=O)[nH]3)ccn1)c1nnc(-c3c(F)cccc3F)cc12 [Example 244] | 120
CC1(C)[C@@H]2CC[C@@]1(c1nc(C#N)ncc1Cl)c1nnc(-c3c(F)cccc3F)cc12 [Example 245] | 26.4
CC1(C)[C@H]2CC[C@]1(c1cncc(-c3ccn[nH]3)n1)c1nnc(-c3c(F)cccc3F)cc12 [Example 246] | 8.4
CC(C)(O)c1cc(-c2cncc([C@@]34CC[C@@H](c5cc(-c6c(F)cccc6F)nnc53)C4(C)C)n2)[nH]n1 [Example 247, 2-(5-(6-((5R,8S)-3-(2,6-difluorophenyl)-9,9-dimethyl-5,6,7,8-tetrahydro-5,8-methanocinnolin-8-yl)pyrazin-2-yl)-1H-pyrazol-3-yl)propan-2-ol] | 20
CC(C)(O)c1noc(-c2cncc([C@@]34CC[C@@H](c5cc(-c6c(F)cccc6F)nnc53)C4(C)C)n2)n1 [Example 248, 2-(5-(6-((5R,8S)-3-(2,6-difluorophenyl)-9,9-dimethyl-5,6,7,8-tetrahydro-5,8-methanocinnolin-8-yl)pyrazin-2-yl)-1,2,4-oxadiazol-3-yl)propan-2-ol] | 27
CC(C)(O)c1nnc(-c2ncc(Cl)c([C@@]34CC[C@@H](c5cc(-c6c(F)cccc6F)nnc53)C4(C)C)n2)[nH]1 [Example 249] | 50.1
CC1(C)[C@H]2CC[C@]1(c1nc(C(N)=O)ncc1F)c1nnc(-c3c(F)cccc3F)cc12 [Example 250] | 22.8
CC1(C)[C@H]2CC[C@]1(c1ccnc(-c3ccn[nH]3)n1)c1nnc(-c3c(F)cccc3F)cc12 [Example 251] | 9.8
CC1(C)[C@H]2CC[C@]1(c1ccnc(-n3ccc(CO)n3)n1)c1nnc(-c3c(F)cccc3F)cc12 [Example 252] | 19.3
CC1(C)[C@H]2CC[C@]1(c1ccnc(-c3cn[nH]c3)n1)c1nnc(-c3c(F)cccc3F)cc12 [Example 253] | 5.7
CC1(C)[C@H]2CC[C@]1(c1ccnc(-c3cccnc3)n1)c1nnc(-c3c(F)cccc3F)cc12 [Example 254] | 4.4
Cc1ncn(-c2cncc([C@@]34CC[C@@H](c5cc(-c6c(F)cccc6F)nnc53)C4(C)C)n2)n1 [Example 255] | 8.6
CC(C)(O)c1nc(-c2cncc([C@@]34CC[C@@H](c5cc(-c6c(F)cccc6F)nnc53)C4(C)C)n2)no1 [Example 256, 2-(3-(6-((5R,8S)-3-(2,6-difluorophenyl)-9,9-dimethyl-5,6,7,8-tetrahydro-5,8-methanocinnolin-8-yl)pyrazin-2-yl)-1,2,4-oxadiazol-5-yl)propan-2-ol] | 10.1

Compound | IC50 [nM]
C[C@H](O)c1nnc(-c2ncc(F)c([C@@]34CC[C@@H](c5cc(-c6c(F)cccc6F)nnc53)C4(C)C)n2)[nH]1 [Example 257] | 22.6
C[C@@H](O)c1nnc(-c2ncc(F)c([C@@]34CC[C@@H](c5cc(-c6c(F)cccc6F)nnc53)C4(C)C)n2)[nH]1 [Example 258] | 21.6
CC(C)(O)c1cc(-c2cncc([C@@]34CC[C@@H](c5cc(-c6c(F)cccc6F)nnc53)C4(C)C)n2)no1 [Example 259, 2-(3-(6-((5R,8S)-3-(2,6-difluorophenyl)-9,9-dimethyl-5,6,7,8-tetrahydro-5,8-methanocinnolin-8-yl)pyrazin-2-yl)isoxazol-5-yl)propan-2-ol] | 8.7
CC(C)(O)c1nnc(-c2cncc([C@@]34CC[C@@H](c5cc(-c6c(F)cccc6F)nnc53)C4(C)C)n2)o1 [Example 260, 2-(5-(6-((5R,8S)-3-(2,6-difluorophenyl)-9,9-dimethyl-5,6,7,8-tetrahydro-5,8-methanocinnolin-8-yl)pyrazin-2-yl)-1,3,4-oxadiazol-2-yl)propan-2-ol] | 12.4
CC1(C)[C@H]2CC[C@]1(c1ccnc(-n3cnc(C(N)=O)c3)n1)c1nnc(-c3c(F)cccc3F)cc12 [Example 261] | 11.7
CC(C)(O)c1nnc(-c2nccc([C@@]34CC[C@@H](c5cc(-c6c(F)cccc6F)nnc53)C4(C)C)n2)[nH]1 [Example 262] | 37.4
C[C@H](O)c1nnc(-c2nccc([C@@]34CC[C@@H](c5cc(-c6c(F)cccc6F)nnc53)C4(C)C)n2)[nH]1 [Example 263] | 20.8
C[C@@H](O)c1nnc(-c2nccc([C@@]34CC[C@@H](c5cc(-c6c(F)cccc6F)nnc53)C4(C)C)n2)[nH]1 [Example 264] | 32.3
Cc1cc(-c2ccnc([C@@]34CC[C@@H](c5cc(-c6c(F)cccc6F)nnc53)C4(C)C)n2)no1 [Example 266, 3-(2-((5R,8R)-3-(2,6-difluorophenyl)-9,9-dimethyl-5,6,7,8-tetrahydro-5,8-methanocinnolin-8-yl)pyrimidin-4-yl)-5-methylisoxazole] | 4.3
Cc1ncn(-c2ncc(F)c([C@@]34CC[C@@H](c5cc(-c6c(F)cccc6F)nnc53)C4(C)C)n2)n1 [Example 267] | 17.3
CC1(C)[C@H]2CC[C@]1(c1nc(N)ncc1F)c1nnc(-c3c(F)cccc3F)cc12 [Example 268] | 3.3
CC(C)(O)c1cc(-c2cncc([C@@]34CC[C@@H](c5cc(-c6c(F)cccc6F)nnc53)C4(C)C)n2)on1 [Example 269, 2-(5-(6-((5R,8S)-3-(2,6-difluorophenyl)-9,9-dimethyl-5,6,7,8-tetrahydro-5,8-methanocinnolin-8-yl)pyrazin-2-yl)isoxazol-3-yl)propan-2-ol] | 3
Cc1ncn(-c2cccc([C@@]34CC[C@@H](c5cc(-c6c(F)cccc6F)nnc53)C4(C)C)n2)n1 [Example 270] | 1.9
CC1(C)[C@H]2CC[C@]1(c1ccnc(-n3cnc(C(F)(F)F)n3)n1)c1nnc(-c3c(F)cccc3F)cc12 [Example 271] | 4.4
CC(C)c1ncn(-c2nccc([C@@]34CC[C@@H](c5cc(-c6c(F)cccc6F)nnc53)C4(C)C)n2)n1 [Example 273] | 5.2
CC1(C)[C@H]2CC[C@]1(c1ccnc(-n3cnc(C4CC4)n3)n1)c1nnc(-c3c(F)cccc3F)cc12 [Example 274] | 2
